From patent publication US4578400A, “Therapeutic composition and method for treatment of cardiovascular diseases” (priority 1982, dated 1986)

What was measured:
[1] = system: chloroform-induced arrhythmia (ventricular fibrillation); conditions: stated without own data; cited from earlier work
[2] = system: ventricular fibrillation after coronary artery ligation; assay: Antiarrhythmic effects on myocardial infarction (coronary ligation); format: in vivo, dogs; conditions: before ligation = 100, control 41
Excerpt: Antiarrhythmic effects on myocardial infarction
The method described by Shinohara (Jap. Circul. J., 32, 1269-1281, 1968) was used. Dogs were divided into groups of 5 animals, anesthetized with intravenous pentobarbital and were thoracotomized under artificial respiration, and a platinum bipolar electrode was inserted on the wall of the right atrium. Then the sinus node was crushed and the animals were subjected to pacing (2.5 Hz, 3 msec, 3.5-8 V) with an electronic stimulator. The left anterior descending coronary artery was doubly ligated at a site 2 cm away from its origin (A. S. Harris, Circulation, 1, 1318, 1950). Then 5--HDA--Na and lidocaine were injected into the femoral vein of the respective dogs. Using an electrode inserted in an ischemic zone in the left ventricle, the animals were given 15 to 20 successive electrical shocks before the ligation and 30 minutes after the ligation and administration. The threshold level necessary for inducing ventricular fibrillation was determined for each group of animals and shown in Table 4, with the values before the ligation taken as 100.

[3] = system: ouabain induced arrhythmia; assay: Effect on ouabain induced arrhythmia; format: in vivo, male hartley guinea pigs; conditions: i.v., 10 mg/kg, control = 100
Excerpt: Effect on ouabain induced arrhythmia
The procedure described in Matsubara et al. (Folia Pharmacologica Japonica, 72, 557-571, 1976) was followed.
Male hartley guinea pigs were divided into groups of 8 animals and anesthetized with intraperitoneal urethane. Three groups were orally administered 5--HDA--Na, 5--HDAE and 5--HDA--DHP dissolved in distilled water. Another group was intravenously injected with 5--HDA--Na dissolved in physiological saline. One group was orally administered δ-DL emulsified in 5% aqueous arabic gum solution. One group was injected intravenously with lidocaine dissolved in physiological saline. For the respective routes of administration, control groups were administered the solvents used in administration of the test compounds. Thirty minutes after the oral administration and one minute after the intravenous injection, ouabain was infused into the jugular vein at a rate of 5 μg/kg/min until extrasystole, ventricular fibrillation and cardiac arrest appeared on a standard limb lead II of ECG. The results are shown in Table 3, with the time necessary for the respective symptoms to occur in the control groups taken as 100.

[4] = system: chloroform-induced arrhythmia (ventricular fibrillation); assay: Effect on chloroform-induced arrhythmia; format: in vivo, male ddy mice; conditions: 10 mg/kg, intraperitoneally 5 minutes before chloroform; control 100
Excerpt: When they stopped breathing, they were thoracotomized to examine the occurrence of ventricular fribrillation. The results are noted in Table 2 as percent occurrence of ventricular fibrillation.

CCN(CC)CC(=O)Nc1c(C)cccc1C [Lidocaine, reference compound]
effectiveness by oral administration (in words) [1]: not effective by oral administration | Threshold level for inducing ventricular fibrillation, 30 min after ligation ([2]; 0.3 mg/kg i.v.): 68 | Threshold level for inducing ventricular fibrillation, 30 min after ligation ([2]; 1.0 mg/kg i.v., *P < 0.05): 84 | relative time for cardiac arrest to occur [3]: 118 | relative time for extrasystole to occur [3]: 133 | relative time for ventricular fibrillation to occur ([3]; *P < 0.05): 129 | Percent occurrence of ventricular fibrillation [4]: 40
